Experimental data: patent publication US11352399B2, “Peptide for toll-like receptor (TLR) inhibition and pharmaceutical composition comprising same” (GENESEN CO., LTD., priority 2017, dated 2022)

How the values were obtained:
hTLR4 (human TLR4) = molecular target: T1, hTLR4 (human TLR4) (Homo sapiens, UniProt O00206); assay: SEAP activity (NF-κB activity) in HEK-Blue-hTLR4 cells; format: cell-based
T1 construct: host or cells: HEK-Blue-hTLR4 (HEK293-derived reporter line)
Experimental: HEK-Blue™-hTLR4 cells were dispensed into 24-well plates (BD Biosciences) to a cell number of 2×10^5 cells/well, and incubation was performed overnight. The next day, the culture was removed and medium replacement was performed. Then, a portion (200 μl) of the culture was transferred to a microcentrifuge tube and heated at 65° C. for 10 minutes using a heating block (FINEPCR. Co., Seoul, Korea). Subsequently, the culture was transferred to 96-well plates (BD Biosciences), and absorbance was measured at 405 nm using the HEK-Blue™ detection kit (InvivoGen) and a microplate reader spectrophotometer (Molecular Devices Inc., Silicon Valley, Calif., USA), to analyze an expression level of SEAP (secreted alkaline phosphatase).
To this end, the inducible secreted embryonic alkaline phosphatase (SEAP) reporter gene was placed under the control of an IL-12 p40 minimal promoter (IL-12 p40 is produced by activation of NF-κB and AP-1 (activator protein 1) after stimulation of TLR4) which contains sites where DNAs of NF-κB and AP-1 bind. Then, HEK-Blue™-hTLR4 cells were treated with varying concentrations of TIP or TIP (TIP W/O CPP), to which CPP is not linked, at 12.5, 25, 50 μM, and then an average value of SEAP activity was calculated to measure TLR4 activity. The results are illustrated in FIGS. 1(a) and 1(b).
The results are illustrated in FIGS. 12(a) and 12(b).

[1] = test system: RAW 264.7 cells (LPS-induced TLR4 signaling); assay: Cytokine secretion (ELISA) in LPS-treated RAW 264.7 cells; format: cell-based, mouse; details: TIP1 and LPS
Experimental: RAW 264.7 cells, THP1 cells, and mBMDM cells were dispensed into 96-well plates to a cell number of 2×10^5 cells/well, or into 24-well plates to a cell number of 5×10^5 cells/well. Incubation was performed overnight. Subsequently, combined treatment with TIP1 and LPS was performed. After 24 hours, secretion levels of IFN-β, IL-6, and TNF-α were measured using a […] (BioLegend), Mouse IL-6 Platinum ELISA (eBiosciences), and a Mouse TNF alpha ELISA Ready SET-Go! kit (eBiosciences). Absorbance was measured at 450 nm using a microplate reader spectrophotometer (Molecular Devices), and the results were analyzed using Softmax Pro 5.3 software (Molecular Devices Inc.).
TNF-α, IL-6, IFN-β levels in the culture supernatant of RAW 264.7 cells were measured using mouse TNF-α, IL-6, IFN-β Ready-SET-Go! ELISA kits according to the method described in Example 2-5. The results are illustrated in FIGS. 4(a)-4(c).

RAW 264.7 cells = assay: NO secretion level in RAW 264.7 culture supernatant; format: cell-based, mouse; details: TIP1 and LPS
Experimental: RAW 264.7 cells and mBMDM cells were dispensed into 96-well plates (BD Biosciences) to a cell number of 2×10^5 cells/well and incubated overnight. Then, a NO level of the culture supernatant was measured using a NO detection kit (iNtRON Biotechnology Inc., Seongnam, Korea). Absorbance was measured at 550 nm using a microplate reader spectrophotometer (Molecular Devices Inc.), and the results were analyzed using Softmax Pro 5.3 software (Molecular Devices Inc.).
In addition, according to the method described in Example 2-7, a NO level in the culture supernatant of RAW 264.7 cells was measured using a NO detection kit. The results are illustrated in FIGS. 5(a)-5(c).

TLR3 = molecular target: T2, TLR3 (Mus musculus, UniProt Q99MB1); assay: TNF-α and IFN-β secretion in RAW 264.7 cells with Poly(I:C); format: cell-based
T2 construct: host or cells: RAW 264.7
T2 sequence (Q99MB1 26-905): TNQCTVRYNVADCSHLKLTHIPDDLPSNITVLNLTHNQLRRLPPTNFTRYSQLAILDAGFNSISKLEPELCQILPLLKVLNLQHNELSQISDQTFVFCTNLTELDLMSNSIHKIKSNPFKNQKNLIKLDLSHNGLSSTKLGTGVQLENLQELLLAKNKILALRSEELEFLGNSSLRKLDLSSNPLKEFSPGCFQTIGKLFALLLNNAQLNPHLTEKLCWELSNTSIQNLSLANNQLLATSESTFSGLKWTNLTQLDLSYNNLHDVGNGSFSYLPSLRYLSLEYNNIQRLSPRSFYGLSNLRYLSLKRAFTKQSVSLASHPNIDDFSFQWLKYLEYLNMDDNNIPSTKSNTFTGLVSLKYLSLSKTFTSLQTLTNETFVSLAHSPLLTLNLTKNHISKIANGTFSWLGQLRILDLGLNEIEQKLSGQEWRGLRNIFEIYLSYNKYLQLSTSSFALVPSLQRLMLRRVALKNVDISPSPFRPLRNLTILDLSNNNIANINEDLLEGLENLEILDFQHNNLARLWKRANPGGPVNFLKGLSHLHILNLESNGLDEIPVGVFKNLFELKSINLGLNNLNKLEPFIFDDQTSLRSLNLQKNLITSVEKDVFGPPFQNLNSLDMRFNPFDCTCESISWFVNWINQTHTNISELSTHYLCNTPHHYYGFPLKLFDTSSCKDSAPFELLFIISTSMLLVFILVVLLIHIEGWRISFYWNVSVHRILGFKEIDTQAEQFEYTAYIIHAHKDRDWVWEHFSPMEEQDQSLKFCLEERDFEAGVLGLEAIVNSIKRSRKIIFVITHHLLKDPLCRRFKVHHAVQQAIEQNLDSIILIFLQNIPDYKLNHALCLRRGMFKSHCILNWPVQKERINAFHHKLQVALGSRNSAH

NLRP3 inflammasome = assay: Western blotting of NLRP3 inflammasome molecules in LPS/ATP-treated mBMDM cells; format: cell-based, mouse
hPBMC cells = assay: NO secretion in LPS-treated hPBMC cells; format: cell-based, human; details: together with LPS, FIG. 12(b)
[2] = test system: LPS-induced sepsis model BALB/c mice; assay: Survival rate in LPS-induced sepsis model; format: in vivo, mouse
Experimental: The control was injected with the same volume of PBS. The results are illustrated in FIG. 18.

[3] = severe sepsis model, LPS 10 μg/g, TIP1 10 nmol/g

T1 sequence (O00206 24-839): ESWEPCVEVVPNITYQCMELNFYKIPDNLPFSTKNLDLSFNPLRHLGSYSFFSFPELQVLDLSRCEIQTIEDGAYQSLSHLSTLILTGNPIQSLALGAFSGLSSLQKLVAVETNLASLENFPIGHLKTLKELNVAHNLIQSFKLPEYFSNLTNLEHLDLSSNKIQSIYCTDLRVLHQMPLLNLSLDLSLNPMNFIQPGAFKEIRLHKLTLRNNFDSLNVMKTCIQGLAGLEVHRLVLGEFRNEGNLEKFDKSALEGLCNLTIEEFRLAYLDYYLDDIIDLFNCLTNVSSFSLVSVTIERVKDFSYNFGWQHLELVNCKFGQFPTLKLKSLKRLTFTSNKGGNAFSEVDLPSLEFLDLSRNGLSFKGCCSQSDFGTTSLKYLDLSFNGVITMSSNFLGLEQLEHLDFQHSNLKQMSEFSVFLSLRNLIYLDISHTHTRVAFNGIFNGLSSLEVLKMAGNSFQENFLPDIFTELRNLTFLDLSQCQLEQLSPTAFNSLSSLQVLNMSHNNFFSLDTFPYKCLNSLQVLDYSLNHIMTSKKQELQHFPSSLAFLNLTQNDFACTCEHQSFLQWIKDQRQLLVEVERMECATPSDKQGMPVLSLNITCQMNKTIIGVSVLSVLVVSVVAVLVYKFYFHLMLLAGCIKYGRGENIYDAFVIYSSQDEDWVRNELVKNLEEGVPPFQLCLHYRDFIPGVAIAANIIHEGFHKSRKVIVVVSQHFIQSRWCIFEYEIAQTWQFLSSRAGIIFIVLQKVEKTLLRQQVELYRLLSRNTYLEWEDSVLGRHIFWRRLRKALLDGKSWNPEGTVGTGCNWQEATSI
T1 sequence (Q9Y6Y9 17-160 partner limits assumed): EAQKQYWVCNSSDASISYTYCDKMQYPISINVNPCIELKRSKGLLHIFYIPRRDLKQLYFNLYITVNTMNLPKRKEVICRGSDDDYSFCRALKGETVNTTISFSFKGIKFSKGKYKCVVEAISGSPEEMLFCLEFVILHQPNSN

RQIKIWFQNRRMKWKKSHCRVLLI (TIP1)
LPS-induced SEAP activity (hTLR4 (human TLR4); TIP 12.5, 25, 50 μM, then LPS, FIG. 1(a)): decreased LPS-induced SEAP activity in a concentration-dependent manner | NF-κB activity (SEAP activity) (hTLR4 (human TLR4); together with LPS, FIG. 12(a)): highest inhibitory effect on NF-κB activity | secretion of IFN-β [1]: decreased in a concentration-dependent manner | secretion of IL-6 [1]: decreased in a concentration-dependent manner | secretion of TNF-α [1]: decreased in a concentration-dependent manner | extracellular secretion of NO (RAW 264.7 cells): effectively decreased | secretion level of TNF-α (TLR3; Poly(I:C) (TLR3)): decreased | decrease of TNF-α secretion (inhibitory effect on TLR3 signaling) (TLR3; Poly(I:C), at 50 μM): 92% | secretion level of IFN-β (TLR3; TIP1 together with Poly(I:C), ELISA): decreased | intracellular expression level of NLRP3 (NLRP3 inflammasome): remarkably decreased | intracellular expression level of active caspase-1 (10 kDa) (NLRP3 inflammasome): remarkably decreased | intracellular expression level of mature IL-1β (17 kDa) (NLRP3 inflammasome): remarkably decreased | NO secretion level (hPBMC cells): highest decreasing effect on NO secretion level | survival rate compared with only LPS ([2]; BALB/c mice, TIP1 10 nmol/g and LPS 5 or 10 μg/g, 5 days): increased survival rate | survival rate maintained for 5 days ([2]; mild sepsis model, LPS 5 μg/g, TIP1 10 nmol/g): 30% | decrease of survival rate after two days [2, 3]: 90% | survival rate maintained for one day [2, 3]: 100%
